Laboratory results: patent publication US6780869B1, “Pyrimidine derivatives” (SmithKline Beecham Corporation, priority 1999, dated 2004)

Experiments:
COX-1 [1] = target: T1, COX-1 (Homo sapiens, UniProt P23219); test: Cell based assay, COS cells stably transfected with human COX-1, PGE2 release; set-up: expressed in transfected cells; host or cells: COS cells (stably transfected); details: inhibition of PGE2 release, 30 μM arachidonic acid
Protocol: (§1) Inhibitory activity against human COX-1 and COX-2 was assessed in COS cells which had been stably transfected with EDNA for human COX-1 and human COX-2. 24 Hours prior to experiment, COS cells were transferred from the 175 cm^2 flasks in which they were grown, onto 24-well cell culture plates using the following procedure. The incubation medium (Dulbecco's modified eagles medium (DMEM) supplemented with heat-inactivated foetal calf serum (10% v/v), penicillin (100 IU/ml), streptomycin (100 μg/ml) and geneticin (600 μg/ml)) was removed from a flask of confluent cells (1 flask at confluency contains approximately 1×10^7 cells). 5 ml of phosphate buffered saline (PBS) was added to the flask to wash the cells. Having discarded the PBS, cells were then incubated with 5 ml trypsin for 5 minutes in an incubator (37°). The flask was then removed from the incubator and 5 ml of fresh incubation medium was added. The contents of the flask was transferred to a 250 ml sterile container and the volume of incubation medium subsequently made up to 100 ml. 1 ml cell suspension was pipetted into each well of 4×24-well cell culture plates. The plates were then placed in an incubator (37° C., 95% air/5% CO2) overnight. If more than 1 flask of cells were required, the cells from the individual flasks were combined before being dispensed into the 24-well plates.
Following the overnight incubation, the incubation medium was completely removed from the 24-well cell culture plates and replaced with 250 μl fresh DMEM (37° C.). The test compounds were made up to 250× the required test concentration in DMSO and were added to the wells in a volume of 1 μl. Plates were then mixed gently by swirling and then placed in an incubator for 1 hour (37° C., 95% air/5% CO2). Following the incubation period, 10 μl of arachidonic acid (750 μM) was added to each well to give a final arachidonic acid concentration of 30 μM. […] The selectivity ratio of inhibition of COX-1 versus COX-2 was calculated by comparing respective IC50 values.

human COX-2 = target: T2, human COX-2 (Homo sapiens, UniProt P35354); test: Cell based assay, COS cells stably transfected with human COX-2, PGE2 release; details: inhibition of PGE2 release, 30 μM arachidonic acid
T2 construct: expressed in transfected cells; host or cells: COS cells (stably transfected)
T2 sequence (P35354 18-604): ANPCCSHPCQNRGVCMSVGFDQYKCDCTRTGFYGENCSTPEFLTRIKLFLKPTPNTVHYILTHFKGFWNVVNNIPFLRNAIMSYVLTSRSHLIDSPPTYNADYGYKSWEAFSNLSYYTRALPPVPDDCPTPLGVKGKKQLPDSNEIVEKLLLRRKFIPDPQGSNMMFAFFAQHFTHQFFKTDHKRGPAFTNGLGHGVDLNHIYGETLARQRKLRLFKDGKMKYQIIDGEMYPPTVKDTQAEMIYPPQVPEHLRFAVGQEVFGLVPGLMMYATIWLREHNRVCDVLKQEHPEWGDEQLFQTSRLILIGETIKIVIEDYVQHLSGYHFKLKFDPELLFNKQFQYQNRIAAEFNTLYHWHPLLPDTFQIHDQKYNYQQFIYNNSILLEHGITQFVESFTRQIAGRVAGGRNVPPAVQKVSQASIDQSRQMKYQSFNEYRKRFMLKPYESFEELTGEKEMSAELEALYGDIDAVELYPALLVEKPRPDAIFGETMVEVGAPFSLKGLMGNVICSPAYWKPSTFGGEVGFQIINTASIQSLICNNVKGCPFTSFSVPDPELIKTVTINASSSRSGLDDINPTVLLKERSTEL
Protocol: as §1, with “24” for “Inhibitory activity against human COX-1 and COX-2 was assessed in COS cells which had been stably transfected with EDNA for human COX-1 and human COX-2. 24”, “Having discarded the PBS, cells were then incubated with 5 ml trypsin for 5 minutes in an incubator (37°).” left out
Following the overnight incubation, the incubation medium was completely removed from the 24-well cell culture plates and replaced with 250 μl fresh DMEM (37° C.). The test compounds were made up to 250× the required test concentration in DMSO and were added to the wells in a volume of 1 μl. Plates were then mixed gently by swirling and then placed in an incubator for 1 hour (37° C., 95% air/5% CO2). […] Plates were then incubated for a further 10 minutes, after which the incubation medium was removed from each well of the plates and stored at −20° C., prior to determination of prostaglandin E2 (PGE2) levels using enzyme immunoassay. […] The selectivity ratio of inhibition of COX-1 versus COX-2 was calculated by comparing respective IC50 values.

COX-1 [2] = target: T1, COX-1; test: Microsomal assay, COX-1; assay type: biochemical
microsomal h-COX2 = target: T3, microsomal h-COX2 (Homo sapiens, UniProt P35354); test: Microsomal assay, microsomal preparation from baculovirus infected SF9 cells, PGE2 by EIA; assay type: biochemical; details: 0.1 μM arachidonic acid, read-out: COX-2: IC50
T3 construct: made in house; host or cells: baculovirus infected SF9 cells (microsomal preparation)
T3 sequence (P35354 18-604): T2 sequence (P35354 18-604)
Protocol: Inhibitory activity against microsomal h-COX2 was assessed against a microsomal preparation from baculovirus infected SF9 cells. An aliquot of microsomal preparation was thawed slowly on ice and a 1/40,000 dilution prepared from it into the assay buffer (sterile water, degassed with argon containing 100 mM HEPES (pH 7.4), 10 mM EDTA (pH7.4), 1 mM phenol, 1 mM reduced glutathione, 20 mg/ml gelatin and 0.001 mM Hematin). Once diluted the enzyme solution was then sonicated for 5 seconds (Branson sonicator, setting 4, 1 cm tip) to ensure a homogeneous suspension. 155 μl enzyme solution was then added to each well of a 96-well microtitre plate containing either 5 μl test compound (40× required test concentration) or 5 μl DMSO for controls. Plates were then mixed and incubated at room temperature for 1 hour. Following the incubation period, 40 μl of 0.5 μM arachidonic acid was added to each well to give a final concentration of 0.1 μM. Plates were then mixed and incubated for exactly 10 minutes (room temperature) prior to addition of 25 μl 1M HCl (hydrochloric acid) to each well to stop the reaction. 25 μl of 1M NaOH (sodium hydroxide) was then added to each well to neutralise the solution prior to determination of PGE2 levels by enzyme immunoassay (EIA).

T1 sequence (P23219 24-599): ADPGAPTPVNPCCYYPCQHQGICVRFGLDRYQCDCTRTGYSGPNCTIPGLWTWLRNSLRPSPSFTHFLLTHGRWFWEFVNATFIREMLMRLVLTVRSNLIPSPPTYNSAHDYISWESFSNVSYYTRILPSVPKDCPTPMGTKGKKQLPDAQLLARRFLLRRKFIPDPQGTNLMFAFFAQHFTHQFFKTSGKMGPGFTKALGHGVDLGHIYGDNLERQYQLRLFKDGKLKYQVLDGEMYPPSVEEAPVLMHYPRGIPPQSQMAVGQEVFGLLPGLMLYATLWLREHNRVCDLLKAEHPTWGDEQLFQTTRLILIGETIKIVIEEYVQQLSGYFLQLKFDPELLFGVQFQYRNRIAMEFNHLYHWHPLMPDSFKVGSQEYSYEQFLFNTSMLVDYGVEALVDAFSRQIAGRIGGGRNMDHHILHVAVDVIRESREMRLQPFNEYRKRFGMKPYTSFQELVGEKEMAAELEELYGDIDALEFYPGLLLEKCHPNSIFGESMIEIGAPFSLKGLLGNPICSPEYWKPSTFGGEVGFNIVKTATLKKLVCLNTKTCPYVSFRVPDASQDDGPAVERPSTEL

| Compound | IC50 (COX-1 [1]) | IC50 (human COX-2) | IC50 (COX-1 [2]) | IC50 (microsomal h-COX2) |
| --- | --- | --- | --- | --- |
| CS(=O)(=O)c1ccc(-c2cc(C(F)(F)F)nc(NC3CCCC3)n2)cc1 [Example 1, N-cyclopentyl-4-[4-(methylsulfonyl)phenyl]-6-(trifluoromethyl)pyrimidin-2-amine] | > 24600 nM | 0.1 nM | – | – |
| CS(=O)(=O)c1ccc(-c2cc(C(F)(F)F)nc(NC3CCCCC3)n2)cc1 [Example 2, N-cyclohexyl-4-[4-(methylsulfonyl)phenyl]-6-(trifluoromethyl)pyrimidin-2-amine] | > 58400 nM | 0.5 nM | – | – |
| CC(C)CNc1nc(-c2ccc(S(C)(=O)=O)cc2)cc(C(F)(F)F)n1 [Example 8, N-isobutyl-4-[4-(methylsulfonyl)phenyl]-6-(trifluoromethyl)pyrimidin-2-amine] | > 66000 nM | 2 nM | > 100000 nM | 12 nM |
| CS(=O)(=O)c1ccc(-c2cc(C(F)(F)F)nc(NCC3CCC3)n2)cc1 [Example 31, N-(cyclobutylmethyl)-4-[4-(methylsulfonyl)phenyl]-6-(trifluoromethyl)pyrimidin-2-amine] | – | – | > 100000 nM | < 1 nM |
